This passage reports Survival results from ChEMBL document CHEMBL4665541, “Search for new therapeutic options for the uncommon pathogen Mycobacterium chimaera: an open drug discovery approach” (Lancet Microbe, 2021).

Holding throughout (format): functional, organism-based
What all share (parameters): conc 20 uM

The test system of assay [1] is Mycobacterium tuberculosis. Briefly: (§1) Inhibition of mycobacterial growth using the resazurin microtitre cell viability assay (REMA), compounds at final concentration of 20 µM (2% v/v DMSO). Hits were classed as compounds that inhibited bacterial growth by 70% or more compared to drug-free controls. The settings on record: H37Rv. For orientation: Alamar Blue is a resazurin reagent that responds to reducing activity.

Assay [2] concerns Mycobacteroides abscessus. The description is as §1. The note with it: ATCC19977.
Assay [3] relates to Mycobacterium intracellulare subsp. chimaera. The assay is described as §1. The settings on record: NCTC13781.

With MMV687248, the Survival in assay [1] was 31.8%; in assay [2], 110%; in assay [3], 110%.
On to MMV069458, for which the Survival in assay [1] was 11.9%; in assay [2] it was 102%; in assay [3], 94.1%.
In the same order, the values of MMV084603 are 98.8%, 112% and 81.6%.
In the same order, the values of MMV020165 are 82.1%, 106% and 98.7%.
On to MMV016838, for which the values for the Survival in assay [1], in assay [2] and in assay [3] were 78.9%, 109% and 91.7%, respectively.
In the same order, the values of MMV688178 are 103%, 107% and 97.1%.
Take MMV676406: the Survival is 67.8% in assay [1], 111% in assay [2] and 105% in assay [3].
With MMV668727, the Survival in assay [1] was 100%; in assay [2] it was 102%; in assay [3] it was 96.8%.
For MMV687145 the same measures were 42.6%, 108% and 130%.
For MMV688704 the same measures were 92.8%, 106% and 98.7%.
For MMV676411 the same measures were 16.4%, 101% and 98.2%.
Regarding MMV688844, the results for the Survival in assay [1], in assay [2] and in assay [3] were 15.4%, 11.7% and 4.25%, respectively.
In the same order, the values of MMV688279 are 32.5%, 110% and 114%.
Regarding MMV022478, the values for the Survival in assay [1], in assay [2] and in assay [3] were 3.81%, 13.3% and 3.7%, respectively.
For MMV006741 the same measures were 85.7%, 111% and 96.4%.
With MMV1236379, the Survival is 96% in assay [1], 110% in assay [2] and 98.4% in assay [3].
In the case of MMV188296, the Survival in assay [1] is 95%; in assay [2] it was 109%; in assay [3] it was 98%.
For MMV688761 the same measures were 108%, 113% and 108%.
As to MMV688990, the Survival in assay [1] is 98.5%; in assay [2] it was 103%; in assay [3], 102%.
In the same order, the values of MMV688550 are 95.8%, 105% and 99%.
For MMV161996 the same measures were 119%, 103% and 108%.
In the same order, the values of MMV690103 are 105%, 117% and 110%.
Regarding MMV676008, the Survival in assay [1] was 99.7%; in assay [2], 123%; in assay [3], 116%.
As for MMV675996, the values for the Survival in assay [1], in assay [2] and in assay [3] were 102%, 94.2% and 94.3%, respectively.
For MMV023949 the same measures were 92.7%, 116% and 90.5%.
For MMV676492, the Survival was 83.1% in assay [1], 101% in assay [2] and 97.8% in assay [3].
For MMV688852 the same measures were 107%, 115% and 103%.
For MMV688362 the same measures were 103%, 109% and 90.2%.
In the same order, the values of MMV676526 are 97.3%, 103% and 74.8%.
With MMV687172, the Survival in assay [1] is 129%; in assay [2], 98.3%; in assay [3], 101%.
In the same order, the values of MMV658988 are 4.93%, 101% and 74.9%.
For MMV676159 the same measures were 99.4%, 106% and 100%.
For MMV024937 the same measures were 88.4%, 103% and 111%.
For the substance MMV688466, the results for the Survival in assay [1], in assay [2] and in assay [3] were 93.2%, 115% and 106%, respectively.
For MMV023183 the same measures were 88.3%, 119% and 104%.
For the substance MMV023953, the Survival is 100% in assay [1], 104% in assay [2] and 93.7% in assay [3].
For MMV688474 the same measures were 94%, 106% and 100%.
In the same order, the values of MMV054312 are 46.8%, 111% and 76.8%.
On to MMV676388, for which the Survival in assay [1] is 87.4%; in assay [2] it was 110%; in assay [3], 101%.
As for MMV676389, the results for the Survival in assay [1], in assay [2] and in assay [3] were 51.7%, 113% and 98.7%, respectively.
In the same order, the values of MMV031011 are 99.4%, 109% and 89.4%.
In the same order, the values of MMV011511 are 88%, 112% and 104%.
Turning to MMV000016, the Survival in assay [1] is 127%; in assay [2], 99.9%; in assay [3], 110%.
For the substance MMV687170, the Survival in assay [1] was 52.7%; in assay [2], 114%; in assay [3], 89.9%.
For MMV085499 the same measures were 90.8%, 106% and 112%.
For MMV688262 the same measures were 8.6%, 106% and 113%.
In the same order, the values of MMV676412 are 6.6%, 105% and 92.8%.
Regarding MMV676512, the figures for the Survival in assay [1], in assay [2] and in assay [3] were 6.01%, 100% and 95.9%, respectively.
In the same order, the values of MMV002816 are 86.4%, 112% and 102%.
For MMV676461 the same measures were 78.3%, 114% and 104%.
For MMV676398 the same measures were 92%, 111% and 99.3%.
As to MMV688853, the Survival in assay [1] was 94.5%; in assay [2], 111%; in assay [3], 102%.
In the case of MMV002529, the Survival in assay [1] was 92%; in assay [2], 120%; in assay [3] it was 99.8%.
For MMV407539 the same measures were 85.3%, 103% and 98.9%.
Take MMV030734: the values for the Survival in assay [1], in assay [2] and in assay [3] were 82.6%, 111% and 89.4%, respectively.
For MMV687762 the same measures were 95.8%, 112% and 101%.
